Measured values: patent US7884124B2, “Fluoro-substituted inhibitors of D-amino acid oxidase” (Sepracor Inc., priority 2006, dated 2011)
Like-named read-outs stand apart in the source and are kept apart here.

Key:
[1] = target: Human DAAO (Homo sapiens, UniProt P14920); assay: D-Amino Acid Oxidase Enzyme Assay (D-serine substrate, horseradish peroxidase/Amplex Red coupled fluorescence); format: biochemical
Method: This coupled reaction uses the enzyme substrate Amplex Red (Molecular Probes), which is converted to the fluorescent reaction product, resorufin (excitation 530-560 nm; emission ˜590 nm). All reagents were prepared in 50 mM sodium phosphate buffer at pH 7.4 and inhibition curves were generated at this pH.
The final concentrations of components in 200 μl total volume per well (black clear-bottom 96-well plate, Costar) were:
(a) Horseradish peroxidase: 4 Units per ml
(d) Amplex Red reagent: 50 uM
The reactions were initiated by addition of DAAO enzyme while the fluorescence was monitored. […] Inhibition curves were generated in the presence of varying concentrations of the inhibitor and IC50 values were calculated for each inhibitor.

[2] = system: D-Serine Levels in the cerebellum; assay: In vivo elevation of D-serine levels in the cerebellum (LC/MS/MS); details: Mus musculus, ip, mice, read-out: Fold increase in D-serine in the cerebellum over vehicle; for response vs control in vivo at 50 mg/kg: 50 mg/kg i.p.; for response vs control in vivo at 10 mg/kg: 10 mg/kg i.p.
Method: In another example, the compounds activity is determined by measuring D-serine levels in vivo. Elevation of the D-serine level in a certain brain area (e.g., the cerebellum) of a test animal (e.g., mouse, rat, pig and the like) is indicative of DAAO inhibition in vivo. An exemplary assay format, which measures D-serine levels (LC/MS/MS) in the cerebellum of mice two hours and six hours after intraperitoneal (i.p.) dosing, is described herein (e.g., Example 9). Increases in D-serine levels were determined through comparison with vehicle. Useful variations of this assay will be apparent to those of skill in the art. Compounds of the invention are judged to be sufficiently active in this assay when at least one, preferably at least two, more preferably at least three and most preferably all four of the following criteria are met:
Mice (C57BL/6, 8-9 weeks of age) were dosed intraperitoneally at 10 mL/kg with 50 mg/kg or 10 mg/kg of compound suspended in 45% (w/v) hydroxy-β-cyclodextrin vehicle. Animals were sacrificed at either 2 or 6 hours post compound administration with an N=3 per time point. At sacrifice, trunk blood was collected into tubes containing potassium EDTA, which were then centrifuged to permit isolation of plasma. The cerebellum from each animal was dissected. Plasma and cerebellum samples were stored at −80° C. until samples were analyzed (LC/MS/MS).

[3] = D-serine 5 mM, pH 7.4, read-out: Human DAAO Inhibition (IC50)

Chain of Human DAAO (P14920 whole entry): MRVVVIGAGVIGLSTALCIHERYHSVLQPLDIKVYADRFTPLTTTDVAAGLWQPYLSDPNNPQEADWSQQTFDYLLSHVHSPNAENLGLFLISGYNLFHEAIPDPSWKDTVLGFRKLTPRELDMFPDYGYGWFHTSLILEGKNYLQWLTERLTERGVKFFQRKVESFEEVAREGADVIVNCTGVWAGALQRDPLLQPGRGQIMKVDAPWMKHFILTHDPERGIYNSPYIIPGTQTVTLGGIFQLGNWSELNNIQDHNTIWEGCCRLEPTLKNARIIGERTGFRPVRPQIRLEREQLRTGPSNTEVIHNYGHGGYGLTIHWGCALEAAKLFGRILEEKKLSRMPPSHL

## O=C(O)c1cc2sc(Cl)cc2[nH]1 [Compound 4, 2-chloro-4H-thieno[3,2-b]pyrrole-5-carboxylic acid]
[1]; [3]
  IC50: < 100000 nM
[2]; 2 h
  response vs control in vivo at 50 mg/kg: < 150%
[2]; 6 h
  response vs control in vivo at 50 mg/kg: < 150%

## O=C(O)c1cc2sc(Br)cc2[nH]1 [Compound 5, 2-bromo-4H-thieno[3,2-b]pyrrole-5-carboxylic acid]
[1]; [3]
  IC50: < 1000 nM
[2]; 2 h
  response vs control in vivo at 10 mg/kg: < 150%
  response vs control in vivo at 50 mg/kg: 150 to 200%
[2]; 6 h
  response vs control in vivo at 10 mg/kg: < 150%
  response vs control in vivo at 50 mg/kg: < 150%

## O=C(O)c1cc2sc(Br)c(Br)c2[nH]1 [Compound 6, 2,3-dibromo-4H-thieno[3,2-b]pyrrole-5-carboxylic acid]
[1]; [3]
  IC50: < 100000 nM

## O=C(O)c1cc2c(Br)csc2[nH]1 [Compound 8, 3-bromo-6H-thieno[2,3-b]pyrrole-5-carboxylic acid]
[1]; [3]
  IC50: < 1000 nM
[2]; 2 h
  response vs control in vivo at 10 mg/kg: < 150%
  response vs control in vivo at 50 mg/kg: 150 to 200%
[2]; 6 h
  response vs control in vivo at 10 mg/kg: < 150%
  response vs control in vivo at 50 mg/kg: 150 to 200%

## O=C(O)c1cc2oc(Cl)cc2[nH]1 [Compound 23, 2-chloro-4H-furo[3,2-b]pyrrole-5-carboxylic acid]
[1]; [3]
  IC50: < 100000 nM

## O=C(O)c1cc2occ(Br)c2[nH]1 [Compound 30, 3-bromo-4H-furo[3,2-b]pyrrole-5-carboxylic acid]
[1]; [3]
  IC50: < 100 nM
[2]; 2 h
  response vs control in vivo at 10 mg/kg: < 150%
  response vs control in vivo at 50 mg/kg: 150 to 200%
[2]; 6 h
  response vs control in vivo at 10 mg/kg: < 150%
  response vs control in vivo at 50 mg/kg: < 150%

## O=C(O)c1cc2scc(Br)c2[nH]1 [Compound 49, 3-bromo-4H-thieno[3,2-b]pyrrole-5-carboxylic acid]
[1]; [3]
  IC50: < 100 nM
[2]; 2 h
  response vs control in vivo at 50 mg/kg: < 150%
[2]; 6 h
  response vs control in vivo at 50 mg/kg: < 150%

## O=C(O)c1[nH]c2ccsc2c1F [Compound 54, 6-fluoro-4H-thieno[3,2-b]pyrrole-5-carboxylic acid]
[1]; [3]
  IC50: < 25 nM
[2]; 2 h
  response vs control in vivo at 10 mg/kg: > 200%
[2]; 6 h
  response vs control in vivo at 10 mg/kg: > 200%

## O=C(O)c1cc2sc(F)cc2[nH]1 [Compound 55, 2-fluoro-4H-thieno[3,2-b]pyrrole-5-carboxylic acid]
[1]; [3]
  IC50: < 25 nM
[2]; 2 h
  response vs control in vivo at 10 mg/kg: < 150%
  response vs control in vivo at 50 mg/kg: > 200%
[2]; 6 h
  response vs control in vivo at 10 mg/kg: < 150%
  response vs control in vivo at 50 mg/kg: 150 to 200%

## O=C(O)c1cc2scc(F)c2[nH]1 [Compound 56, 3-fluoro-4H-thieno[3,2-b]pyrrole-5-carboxylic acid]
[1]; [3]
  IC50: < 25 nM
[2]; 2 h
  response vs control in vivo at 10 mg/kg: 150 to 200%
[2]; 6 h
  response vs control in vivo at 10 mg/kg: < 150%

## O=C(O)c1[nH]c2sccc2c1Br [Compound 64, 4-bromo-6H-thieno[2,3-b]pyrrole-5-carboxylic acid]
[1]; [3]
  IC50: < 1000 nM
[2]; 2 h
  response vs control in vivo at 10 mg/kg: < 150%
  response vs control in vivo at 50 mg/kg: < 150%
[2]; 6 h
  response vs control in vivo at 10 mg/kg: < 150%
  response vs control in vivo at 50 mg/kg: < 150%

## O=C(O)c1cc2cc(Br)sc2[nH]1 [Compound 65, 2-bromo-6H-thieno[2,3-b]pyrrole-5-carboxylic acid]
[1]; [3]
  IC50: < 100000 nM

## O=C(O)c1cc2cc(F)sc2[nH]1 [Compound 66, 2-fluoro-6H-thieno[2,3-b]pyrrole-5-carboxylic acid]
[1]; [3]
  IC50: < 25 nM
[2]; 2 h
  response vs control in vivo at 10 mg/kg: 150 to 200%
  response vs control in vivo at 50 mg/kg: > 200%
[2]; 6 h
  response vs control in vivo at 10 mg/kg: < 150%
  response vs control in vivo at 50 mg/kg: 150 to 200%

## O=C(O)c1cc2scc(Cl)c2[nH]1 [Compound 67, 3-chloro-4H-thieno[3,2-b]pyrrole-5-carboxylic acid]
[1]; [3]
  IC50: < 25 nM
[2]; 2 h
  response vs control in vivo at 10 mg/kg: < 150%
  response vs control in vivo at 50 mg/kg: < 150%
[2]; 6 h
  response vs control in vivo at 10 mg/kg: < 150%
  response vs control in vivo at 50 mg/kg: < 150%

## O=C(O)c1cc2c(F)csc2[nH]1 [Compound 68, 3-fluoro-6H-thieno[2,3-b]pyrrole-5-carboxylic acid]
[1]; [3]
  IC50: < 25 nM
[2]; 2 h
  response vs control in vivo at 10 mg/kg: < 150%
  response vs control in vivo at 50 mg/kg: 150 to 200%
[2]; 6 h
  response vs control in vivo at 10 mg/kg: < 150%
  response vs control in vivo at 50 mg/kg: 150 to 200%

## O=C(O)c1[nH]c2sccc2c1Cl [Compound 69, 4-chloro-6H-thieno[2,3-b]pyrrole-5-carboxylic acid]
[1]; [3]
  IC50: < 100 nM

## O=C(O)c1[nH]c2ccsc2c1Cl [Compound 70, 6-chloro-4H-thieno[3,2-b]pyrrole-5-carboxylic acid]
[1]; [3]
  IC50: < 100 nM
[2]; 2 h
  response vs control in vivo at 10 mg/kg: < 150%
[2]; 6 h
  response vs control in vivo at 10 mg/kg: < 150%

## O=C(O)c1[nH]c2ccsc2c1Br [Compound 71, 6-bromo-4H-thieno[3,2-b]pyrrole-5-carboxylic acid]
[1]; [3]
  IC50: < 1000 nM
[2]; 2 h
  response vs control in vivo at 10 mg/kg: < 150%
[2]; 6 h
  response vs control in vivo at 10 mg/kg: < 150%

## O=C(O)c1[nH]c2ccoc2c1Br [Compound 72, 6-bromo-4H-furo[3,2-b]pyrrole-5-carboxylic acid]
[1]; [3]
  IC50: < 1000 nM
[2]; 2 h
  response vs control in vivo at 10 mg/kg: < 150%
  response vs control in vivo at 50 mg/kg: < 150%
[2]; 6 h
  response vs control in vivo at 10 mg/kg: < 150%
  response vs control in vivo at 50 mg/kg: < 150%

## O=C(O)c1cc2oc(Br)cc2[nH]1 [Compound 73, 2-bromo-4H-furo[3,2-b]pyrrole-5-carboxylic acid]
[1]; [3]
  IC50: < 100000 nM

## O=C(O)c1cc2occ(F)c2[nH]1 [Compound 74, 3-fluoro-4H-furo[3,2-b]pyrrole-5-carboxylic acid]
[1]; [3]
  IC50: < 25 nM
[2]; 2 h
  response vs control in vivo at 10 mg/kg: > 200%
  response vs control in vivo at 50 mg/kg: > 200%
[2]; 6 h
  response vs control in vivo at 10 mg/kg: 150 to 200%
  response vs control in vivo at 50 mg/kg: > 200%

## O=C(O)c1[nH]c2ccoc2c1F [Compound 75, 6-fluoro-4H-furo[3,2-b]pyrrole-5-carboxylic acid]
[1]; [3]
  IC50: < 25 nM
[2]; 2 h
  response vs control in vivo at 10 mg/kg: > 200%
  response vs control in vivo at 50 mg/kg: > 200%
[2]; 6 h
  response vs control in vivo at 10 mg/kg: 150 to 200%
  response vs control in vivo at 50 mg/kg: > 200%

## O=C(O)c1cc2occ(Cl)c2[nH]1 [Compound 76, 3-chloro-4H-furo[3,2-b]pyrrole-5-carboxylic acid]
[1]
  IC50: < 100 nM
[2]; 2 h
  response vs control in vivo at 10 mg/kg: < 150%
[2]; 6 h
  response vs control in vivo at 10 mg/kg: < 150%

## O=C(O)c1cc2oc(F)cc2[nH]1 [Compound 78, 2-fluoro-4H-furo[3,2-b]pyrrole-5-carboxylic acid]
[1]; [3]
  IC50: < 25 nM

## O=C(O)c1[nH]c2ccoc2c1Cl [Compound 79, 6-chloro-4H-furo[3,2-b]pyrrole-5-carboxylic acid]
[1]; [3]
  IC50: < 100 nM

## O=C(O)c1cc2cc(Cl)sc2[nH]1 [Compound 80, 2-chloro-6H-thieno[2,3-b]pyrrole-5-carboxylic acid]
[1]; [3]
  IC50: < 100000 nM

## O=C(O)c1cc2c(Cl)csc2[nH]1 [Compound 81, 3-chloro-6H-thieno[2,3-b]pyrrole-5-carboxylic acid]
[1]; [3]
  IC50: < 100 nM

## O=C(O)c1[nH]c2sccc2c1F [Compound 82, 4-fluoro-6H-thieno[2,3-b]pyrrole-5-carboxylic acid]
[1]; [3]
  IC50: < 100 nM

## O=C(O)c1[nH]c2sc(Br)cc2c1Br [Compound 84, 2,4-dibromo-6H-thieno[2,3-b]pyrrole-5-carboxylic acid]
[1]
  inhibition at 100 µM: 33%
